ChEMBL document CHEMBL3885861, “Open TG-GATES”

Organism: Rattus norvegicus
Experiment: Open TG-GATES - Regimen: Daily Repeat
Assay type: toxicity, organism-based, Sprague-Dawley
Parameters: regimen Daily Repeat, gender Male, age 6 weeks
Conditions: in vivo, po, 30 mg/kg, route gavage, dose level Middle; for APTT / Bas / Eos / Fbg / Hb / Ht / Lym / MCH / MCHC / MCV / Mono / Neu / PT / Plat / RBC / Ret / WBC: tissue Blood; for KIDNEY_L / KIDNEY_R / KIDNEY_TOTAL: tissue Kidney; for LIVER: tissue Liver; for A/G / ALP / ALT / AST / BUN / CRE / Ca / Cl / DBIL / GLC / IP / K / LDH / Na / PL / RALB / TBIL / TC / TG / TP / gamma-GTP: tissue Plasma

Structure (SMILES): CC1=C(/C=C/C(C)=C/C=C/C(C)=C/CO)C(C)(C)CCC1 [RETINOL]
- TERMINAL_BW (72 h, time 3 day): 230.8 g
- APTT (72 h, time 3 day): 23.3 s
- Bas (72 h, time 3 day): 0%
- Eos (72 h, time 3 day): 0.8%
- Fbg (72 h, time 3 day): 299 mg/dL
- Hb (72 h, time 3 day): 13.5 g/dL
- Ht (72 h, time 3 day): 39%
- Lym (72 h, time 3 day): 79.4%
- MCH (72 h, time 3 day): 21.5 pg
- MCHC (72 h, time 3 day): 34.7%
- MCV (72 h, time 3 day): 62 fL
- Mono (72 h, time 3 day): 2.4%
- Neu (72 h, time 3 day): 16.6%
- PT (72 h, time 3 day): 16.8 s
- Plat (72 h, time 3 day): 120.5 x10_4/uL
- RBC (72 h, time 3 day): 629.4 x10_4/ul
- Ret (72 h, time 3 day): 5.6%
- WBC (72 h, time 3 day): 103.8 x10_2/uL
- KIDNEY_L (72 h, time 3 day): 1 g
- KIDNEY_R (72 h, time 3 day): 0.9 g
- KIDNEY_TOTAL (72 h, time 3 day): 1.9 g
- LIVER (72 h, time 3 day): 11.2 g
- A/G (72 h, time 3 day): 1.3
- ALP (72 h, time 3 day): 2028 IU/L
- ALT (72 h, time 3 day): 48.8 IU/L
- AST (72 h, time 3 day): 78.6 IU/L
- BUN (72 h, time 3 day): 19.4 mg/dL
- CRE (72 h, time 3 day): 0.2 mg/dL
- Ca (72 h, time 3 day): 11 mg/dL
- Cl (72 h, time 3 day): 106.8 meq/L
- DBIL (72 h, time 3 day): 0.002 mg/dL
- GLC (72 h, time 3 day): 188.6 mg/dL
- IP (72 h, time 3 day): 6.4 mg/dL
- K (72 h, time 3 day): 4.3 meq/L
- LDH (72 h, time 3 day): 235.6 IU/L
- Na (72 h, time 3 day): 141.2 meq/L
- PL (72 h, time 3 day): 166.4 mg/dL
- RALB (72 h, time 3 day): 3.2 g/dL
- TBIL (72 h, time 3 day): 0.012 mg/dL
- TC (72 h, time 3 day): 78.8 mg/dL
- TG (72 h, time 3 day): 150 mg/dL
- TP (72 h, time 3 day): 5.7 g/dL
- gamma-GTP (72 h, time 3 day): 1.6 IU/L
- TERMINAL_BW ([…], time 7 day): 256.2 g
- TERMINAL_BW ([…], time 14 day): 297 g
- TERMINAL_BW ([…], time 28 day): 360.9 g
- APTT ([…], time 7 day): 26.4 s
- Bas ([…], time 7 day): 0%
- Eos ([…], time 7 day): 0.8%
- Fbg ([…], time 7 day): 275.2 mg/dL
- Hb ([…], time 7 day): 13.7 g/dL
- Ht ([…], time 7 day): 39.4%
- Lym ([…], time 7 day): 83.6%
- MCH ([…], time 7 day): 20.8 pg
- MCHC ([…], time 7 day): 34.8%
- MCV ([…], time 7 day): 59.8 fL
- Mono ([…], time 7 day): 1.6%
- Neu ([…], time 7 day): 13.2%
- PT ([…], time 7 day): 15.8 s
- Plat ([…], time 7 day): 125.2 x10_4/uL
- RBC ([…], time 7 day): 660.2 x10_4/ul
- Ret ([…], time 7 day): 4.6%
- WBC ([…], time 7 day): 81.8 x10_2/uL
- APTT ([…], time 14 day): 28.5 s
- Bas ([…], time 14 day): 0%
- Eos ([…], time 14 day): 0.8%
- Fbg ([…], time 14 day): 290.2 mg/dL
- Hb ([…], time 14 day): 13.4 g/dL
- Ht ([…], time 14 day): 38.1%
- Lym ([…], time 14 day): 76.2%
- MCH ([…], time 14 day): 20 pg
- MCHC ([…], time 14 day): 35.1%
- MCV ([…], time 14 day): 56.9 fL
- Mono ([…], time 14 day): 2.6%
- Neu ([…], time 14 day): 19.8%
- PT ([…], time 14 day): 15.9 s
- Plat ([…], time 14 day): 103.9 x10_4/uL
- RBC ([…], time 14 day): 671.4 x10_4/ul
- Ret ([…], time 14 day): 3.9%
- WBC ([…], time 14 day): 101 x10_2/uL
- APTT ([…], time 28 day): 37.3 s
- Bas ([…], time 28 day): 0%
- Eos ([…], time 28 day): 0.8%
- Fbg ([…], time 28 day): 283 mg/dL
- Hb ([…], time 28 day): 13.8 g/dL
- Ht ([…], time 28 day): 38.6%
- Lym ([…], time 28 day): 76.4%
- MCH ([…], time 28 day): 19.6 pg
- MCHC ([…], time 28 day): 35.7%
- MCV ([…], time 28 day): 54.9 fL
- Mono ([…], time 28 day): 2%
- Neu ([…], time 28 day): 19.8%
- PT ([…], time 28 day): 17.3 s
- Plat ([…], time 28 day): 116.5 x10_4/uL
- RBC ([…], time 28 day): 704 x10_4/ul
- Ret ([…], time 28 day): 2.7%
- WBC ([…], time 28 day): 133 x10_2/uL
- KIDNEY_L ([…], time 7 day): 1.1 g
- KIDNEY_R ([…], time 7 day): 1.1 g
- KIDNEY_TOTAL ([…], time 7 day): 2.2 g
- KIDNEY_L ([…], time 14 day): 1.2 g
- KIDNEY_R ([…], time 14 day): 1.2 g
- KIDNEY_TOTAL ([…], time 14 day): 2.4 g
- KIDNEY_L ([…], time 28 day): 1.4 g
- KIDNEY_R ([…], time 28 day): 1.4 g
- KIDNEY_TOTAL ([…], time 28 day): 2.8 g
- LIVER ([…], time 7 day): 11.7 g
- LIVER ([…], time 14 day): 14.1 g
- LIVER ([…], time 28 day): 15.1 g
- A/G ([…], time 7 day): 1.2
- ALP ([…], time 7 day): 1900.8 IU/L
- ALT ([…], time 7 day): 48.4 IU/L
- AST ([…], time 7 day): 82 IU/L
- BUN ([…], time 7 day): 17.2 mg/dL
- CRE ([…], time 7 day): 0.2 mg/dL
- Ca ([…], time 7 day): 10.5 mg/dL
- Cl ([…], time 7 day): 108.8 meq/L
- DBIL ([…], time 7 day): 0.002 mg/dL
- GLC ([…], time 7 day): 191 mg/dL
- IP ([…], time 7 day): 6.6 mg/dL
- K ([…], time 7 day): 4.4 meq/L
- LDH ([…], time 7 day): 208.2 IU/L
- Na ([…], time 7 day): 143 meq/L
- PL ([…], time 7 day): 148.6 mg/dL
- RALB ([…], time 7 day): 3 g/dL
- TBIL ([…], time 7 day): 0.002 mg/dL
- TC ([…], time 7 day): 71.4 mg/dL
- TG ([…], time 7 day): 175.2 mg/dL
- TP ([…], time 7 day): 5.5 g/dL
- gamma-GTP ([…], time 7 day): 1 IU/L
- A/G ([…], time 14 day): 1.2
- ALP ([…], time 14 day): 1990.8 IU/L
- ALT ([…], time 14 day): 49.4 IU/L
- AST ([…], time 14 day): 83.8 IU/L
- BUN ([…], time 14 day): 17.4 mg/dL
- CRE ([…], time 14 day): 0.2 mg/dL
- Ca ([…], time 14 day): 10.5 mg/dL
- Cl ([…], time 14 day): 108.2 meq/L
- DBIL ([…], time 14 day): 0 mg/dL
- GLC ([…], time 14 day): 198.6 mg/dL
- IP ([…], time 14 day): 5.9 mg/dL
- K ([…], time 14 day): 4.2 meq/L
- LDH ([…], time 14 day): 269 IU/L
- Na ([…], time 14 day): 142.8 meq/L
- PL ([…], time 14 day): 172.6 mg/dL
- RALB ([…], time 14 day): 3 g/dL
- TBIL ([…], time 14 day): 0.002 mg/dL
- TC ([…], time 14 day): 74.4 mg/dL
- TG ([…], time 14 day): 312 mg/dL
- TP ([…], time 14 day): 5.6 g/dL
- gamma-GTP ([…], time 14 day): 1.2 IU/L
- A/G ([…], time 28 day): 1
- ALP ([…], time 28 day): 1673.8 IU/L
- ALT ([…], time 28 day): 56.6 IU/L
- AST ([…], time 28 day): 79.8 IU/L
- BUN ([…], time 28 day): 16.2 mg/dL
- CRE ([…], time 28 day): 0.2 mg/dL
- Ca ([…], time 28 day): 10.1 mg/dL
- Cl ([…], time 28 day): 108 meq/L
- DBIL ([…], time 28 day): 0 mg/dL
- GLC ([…], time 28 day): 183.4 mg/dL
- IP ([…], time 28 day): 6.2 mg/dL
- K ([…], time 28 day): 4.2 meq/L
- LDH ([…], time 28 day): 138.4 IU/L
- Na ([…], time 28 day): 141 meq/L
- PL ([…], time 28 day): 145 mg/dL
- RALB ([…], time 28 day): 2.9 g/dL
- TBIL ([…], time 28 day): 0.026 mg/dL
- TC ([…], time 28 day): 66.6 mg/dL
- TG ([…], time 28 day): 203.4 mg/dL
- TP ([…], time 28 day): 5.7 g/dL
- gamma-GTP ([…], time 28 day): 1.2 IU/L
